Data from patent publication US20100298141A1, “SUBSTITUTED PYRIDINE N-OXIDE HERBICIDES” (E. I. DU PONT DE NEMOURS AND COMPANY, priority 2007, published 2010).

Columns and labels:
[1] = tested on: woolly cupgrass; experiment: Test C pre-/postemergence test; assay type: in vivo, Eriochloa villosa; conditions: Preemergence
How it was run: (§1)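 Test chemicals were formulated with surfactant in a non-phytotoxic solvent and sprayed both on freshly planted seeds (preemergence) and on 1- to 4-leaf plants of 2–18 cm (postemergence). Flooded-paddy pots received compound directly into 3 cm of standing water, maintained for the test.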

[2] = tested on: lambsquarters; experiment: Test C pre-/postemergence test; assay type: in vivo, Chenopodium album; conditions: Preemergence
How it was run: as §1

[3] = tested on: blackgrass; experiment: Test C pre-/postemergence test; assay type: in vivo, Alopecurus myosuroides
How it was run: as §1

[4] = tested on: rice; experiment: Test C flooded paddy test; assay type: in vivo, Oryza sativa; conditions: Flood
How it was run: (§2)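 Compound was added to standing water 3 cm above soil, flood maintained, and plants held in a greenhouse before visual scoring against controls at 13 to 15 days.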

[5] = tested on: downy brome; experiment: Test C pre-/postemergence test; assay type: in vivo, Bromus tectorum
How it was run: as §1

[6] = tested on: catchweed bedstraw; experiment: Test C pre-/postemergence test; assay type: in vivo, Galium aparine; conditions: Preemergence
How it was run: as §1

[7] = tested on: green foxtail; experiment: Test C pre-/postemergence test; assay type: in vivo, Setaria viridis; conditions: Preemergence
How it was run: as §1

[8] = tested on: cocklebur; experiment: Test C pre-/postemergence test; assay type: in vivo, Xanthium strumarium
How it was run: as §1

[9] = tested on: wild oat; experiment: Test C pre-/postemergence test; assay type: in vivo, Avena fatua; conditions: Preemergence
How it was run: as §1

[10] = tested on: redroot pigweed; experiment: Test A pre-/postemergence greenhouse test; assay type: in vivo, Amaranthus retroflexus; conditions: for Pigweed plant response rating: 0 to 100 scale
How it was run: (§3)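 Untreated controls served as the reference for visual injury ratings taken about ten days after spraying. The non-phytotoxic solvent/surfactant formulation was applied preemergence to seeded loam and sand and postemergence to plants two to ten cm high.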

[11] = tested on: duck salad; experiment: Test C flooded paddy test; assay type: in vivo, Heteranthera limosa; conditions: Flood
How it was run: as §2

[12] = tested on: soybean; experiment: Test C pre-/postemergence test; assay type: in vivo, Glycine max; conditions: Preemergence, 31 g ai/ha; scale 0 to 100 (0 no effect, 100 complete control)
How it was run: as §1

[13] = tested on: kochia; experiment: Test C pre-/postemergence test; assay type: in vivo, Kochia scoparia; conditions: Preemergence
How it was run: as §1

[14] = tested on: bermudagrass; experiment: Test C pre-/postemergence test; assay type: in vivo, Cynodon dactylon
How it was run: as §1

[15] = tested on: yellow nutsedge; experiment: Test C pre-/postemergence test; assay type: in vivo, Cyperus esculentus; conditions: Preemergence
How it was run: as §1

[16] = tested on: morningglory; experiment: Test A pre-/postemergence greenhouse test; assay type: in vivo, Ipomoea spp.; conditions: for Morningglory plant response rating: 0 to 100 scale
How it was run: as §3

[17] = 31 g ai/ha, scale 0 to 100 (0 no effect, 100 complete control)
[18] = 62 g ai/ha, Preemergence, scale 0 to 100
[19] = Preemergence, 31 g ai/ha, scale 0 to 100 (0 no effect, 100 complete control)
[20] = preemergence, 125 g ai/ha, scale 0 (no effect) to 100 (complete control)
[21] = 62 g ai/ha, scale 0 to 100, 0 no effect, 100 complete control, 13 to 15 days
[22] = 125 g ai/ha, scale 0 to 100, 0 no effect, 100 complete control, 13 to 15 days
[23] = 250 g ai/ha, scale 0 to 100, 0 no effect, 100 complete control, 13 to 15 days
[24] = Postemergence, 125 g ai/ha, 0 is no effect, 100 is complete control
[25] = Postemergence, 500 g ai/ha, 0 is no effect, 100 is complete control
[26] = Preemergence, 125 g ai/ha, 0 no effect, 100 complete control
[27] = Preemergence, 500 g ai/ha, 0 to 100 scale where 0 is no effect and 100 is complete control

Cc1cc[n+]([O-])c([S+]([O-])Cc2c(C(F)(F)F)nn(C)c2OCC(F)(F)F)c1 (racemic) [Compound 30]
0: Plant response rating, Rice [4, 17] | Plant response rating, Rice [4, 21] | Bromegrass, Downy plant response rating [5, 18] | Plant response rating, Bromegrass, Downy [5, 19] | Cocklebur plant response rating [8, 18] | Plant response rating, Cocklebur [8, 19]
70: Nutsedge, Yellow plant response rating ([15]; 62 g ai/ha, scale 0 to 100) | Morningglory plant response rating [16, 24]
85: Plant response rating (0 to 100), Cocklebur ([8]; Preemergence, 250 g ai/ha)
65: Plant response rating, Ducksalad [11, 17] | Plant response rating, Nutsedge, Yellow [15, 17]
10: Plant response rating, Oat, Wild [9, 17]
20: Plant response rating, Rice [4, 22]
50: Plant response rating, Cupgrass, Woolly [1, 17]
80: Plant response rating, Blackgrass [3, 19] | Plant response rating, Rice [4, 23] | Cocklebur plant response rating [8, 20]
75: Plant response rating, Ducksalad [11, 21]
60: Plant response rating (0 to 100), Bromegrass, Downy ([5]; Preemergence, 250 g ai/ha) | Bromegrass, Downy plant response rating [5, 20] | Oat, Wild plant response rating ([9]; 62 g ai/ha, scale 0 to 100) | Plant response rating, Soybean [12]
90: Pigweed plant response rating [10, 24] | Morningglory plant response rating [16, 25]
100: Cupgrass, Woolly plant response rating ([1]; 62 g ai/ha, scale 0 to 100) | Plant response rating (0 to 100), Cupgrass, Woolly ([1]; 250 g ai/ha) | Lambsquarters plant response rating ([2]; 62 g ai/ha, scale 0 to 100) | Plant response rating, Lambsquarters [2, 17] | Blackgrass plant response rating [3, 18] | Plant response rating (0 to 100), Blackgrass ([3]; Preemergence, 250 g ai/ha) | Blackgrass plant response rating [3, 20] | Galium plant response rating ([6]; 62 g ai/ha, scale 0 to 100) | Plant response rating, Galium [6, 17] | Plant response rating (0 to 100), Galium ([6]; 250 g ai/ha) | Foxtail, Green plant response rating ([7]; 62 g ai/ha, scale 0 to 100) | Plant response rating, Foxtail, Green [7, 17] | Plant response rating (0 to 100), Foxtail, Green ([7]; 250 g ai/ha) | Pigweed plant response rating [10, 25] | Pigweed plant response rating [10, 26] | Plant response rating, Pigweed [10, 27] | Plant response rating, Ducksalad [11, 22] | Plant response rating, Ducksalad [11, 23] | Kochia plant response rating ([13]; 62 g ai/ha, scale 0 to 100) | Plant response rating, Kochia [13, 17] | Bermudagrass plant response rating ([14]; 62 g ai/ha, Preemergence, scale 0 to 100 (0 no effect, 100 complete control)) | Plant response rating, Bermudagrass [14, 19] | Plant response rating (0 to 100), Bermudagrass ([14]; Preemergence, 250 g ai/ha) | Bermudagrass plant response rating [14, 20] | Morningglory plant response rating [16, 26] | Plant response rating, Morningglory [16, 27]
